The values that follow come from ChEMBL document CHEMBL1201862, “PubChem BioAssay data set” (2004).

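Cultured in 96-well plates, cells were exposed to test compound for 48 hours across five concentrations. The concentration for 50% growth inhibition is given as GI50.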 The source made the active and inactive calls. No stated cut-off is given here; in the data, active = GI50 up to about 1.1 µM and inactive = higher.

Among the test systems are IGROV-1; MDA-MB-231; U-251; OVCAR-4; HL-60; A549; NCI-H522; DU-145; MDA-MB-435; SNB-75; CCRF-CEM; Hs-578T; SN12C; SK-MEL-5; HT-29; HCT-116; SK-MEL-28; T47D; OVCAR-5; MCF7.
Holding throughout (test): growth of human tumour cells (NCI), 48 h

Take `N#CC(=N)c1ncn(CCO)c1NC(=O)C(F)(F)F`: the GI50 with IGROV-1, with MDA-MB-231, with U-251, in the assay on OVCAR-4, in the assay on HL-60 and in the assay on A549 was > 100 µM (inactive) throughout. Moreover, the GI50 with NCI-H522, with DU-145, in the assay with MDA-MB-435, in the assay on SNB-75, with CCRF-CEM and with Hs-578T was > 100 µM (inactive) each time. For the same compound, the GI50 in the assay on SN12C, in the assay with SK-MEL-5, in the assay with HT-29, in the assay with HCT-116, in the assay on SK-MEL-28 and with T47D was > 100 µM (inactive) each time. Moreover, in the assay with OVCAR-5, the GI50 is > 100 µM (inactive).

As for `Cc1nnc2ccccc2c1O`, the GI50 with IGROV-1, with MDA-MB-231, in the assay on U-251, in the assay on OVCAR-4, in the assay with A549 and with NCI-H522 was > 100 µM (inactive) throughout. Moreover, the GI50 with DU-145, in the assay with MDA-MB-435, in the assay on SNB-75, in the assay on Hs-578T, in the assay with SN12C and with SK-MEL-5 was > 100 µM (inactive) throughout. For the same compound, the GI50 in the assay with HT-29, with MCF7, in the assay on HCT-116, in the assay on SK-MEL-28, in the assay on T47D and with OVCAR-5 was > 100 µM (inactive) in each case.

In the case of `O=C(NC/C(Cl)=C/Cl)Nc1c2ccccc2nc2ccccc12`, the GI50 with IGROV-1 was 35.5 µM (inactive); with MDA-MB-231 it was 22 µM (inactive); in the assay with U-251, 70.8 µM (inactive); in the assay on OVCAR-4, 35.4 µM (inactive); in the assay on A549 it was > 100 µM (inactive); with NCI-H522, > 100 µM (inactive). Also, the GI50 is 54.5 µM (inactive) in the assay with DU-145; > 100 µM (inactive) in the assay on MDA-MB-435; > 100 µM (inactive) in the assay on SNB-75; > 100 µM (inactive) with Hs-578T; 69.7 µM (inactive) in the assay with SN12C; 57.9 µM (inactive) in the assay with SK-MEL-5. Moreover, the GI50 in the assay with HT-29 is 53.2 µM (inactive); with MCF7, > 100 µM (inactive); in the assay on HCT-116, 24.3 µM (inactive); with SK-MEL-28 it was > 100 µM (inactive); in the assay on T47D, 71.1 µM (inactive); in the assay with OVCAR-5, 99.3 µM (inactive).

As for `O=[N+]([O-])C(=C(N1CCOCC1)N1CCOCC1)/C(Cl)=C(\Cl)[N+](=O)[O-]`, the GI50 in the assay on IGROV-1 is 1.41 µM (inactive); in the assay with MDA-MB-231, 3.85 µM (inactive); in the assay with U-251, 18.9 µM (inactive); in the assay with OVCAR-4, 16 µM (inactive); in the assay with A549, 23.1 µM (inactive); in the assay on NCI-H522, 1.48 µM (inactive). Further, the GI50 with DU-145 is 7.45 µM (inactive); in the assay with MDA-MB-435 it was 10.3 µM (inactive); in the assay on SNB-75, 19.4 µM (inactive); in the assay with CCRF-CEM it was 2.65 µM (inactive); in the assay on Hs-578T, 1.18 µM (inactive); in the assay with SN12C, 2.01 µM (inactive). Also, the GI50 with SK-MEL-5 was 1.66 µM (inactive); in the assay with HT-29 it was 4.1 µM (inactive); in the assay on MCF7, 2.67 µM (inactive); in the assay on HCT-116, 2 µM (inactive); with SK-MEL-28 it was 14.3 µM (inactive); with T47D, 1.96 µM (inactive). Moreover, in the assay on OVCAR-5, the GI50 was 14.6 µM (inactive).

For `CC(C)Cn1cnc2c(SCc3ccc(Cl)cc3Cl)nc(N)nc21`, the GI50 was 48.8 µM (inactive) in the assay with IGROV-1; 39.1 µM (inactive) in the assay on MDA-MB-231; 27.5 µM (inactive) with U-251; 59.2 µM (inactive) in the assay with OVCAR-4; 25.1 µM (inactive) in the assay on A549; 14.6 µM (inactive) in the assay with NCI-H522. Besides, the GI50 with DU-145 was > 100 µM (inactive); in the assay with MDA-MB-435, 32.3 µM (inactive); in the assay on SNB-75 it was 42.8 µM (inactive); in the assay with Hs-578T, 44.8 µM (inactive); in the assay with SN12C, 47.3 µM (inactive); in the assay with SK-MEL-5, 10 µM (inactive). For the same compound, the GI50 with HT-29 was 27 µM (inactive); with MCF7 it was 18.3 µM (inactive); in the assay on HCT-116 it was 23.2 µM (inactive); in the assay with SK-MEL-28, 57.1 µM (inactive); in the assay on T47D, 13.5 µM (inactive); in the assay with OVCAR-5 it was 37.8 µM (inactive).

Take `Nc1nc(N)c2ncn(-c3ccc(Cl)c(Cl)c3)c2n1`: the GI50 was 16.2 µM (inactive) in the assay with IGROV-1; 23.1 µM (inactive) in the assay with MDA-MB-231; 25.9 µM (inactive) with U-251; 33.3 µM (inactive) with OVCAR-4; 30.8 µM (inactive) with A549; 28.4 µM (inactive) in the assay with NCI-H522. Besides, the GI50 is 18.5 µM (inactive) in the assay on DU-145; 33.7 µM (inactive) in the assay with MDA-MB-435; < 0.01 µM (active) in the assay on SNB-75; 3.71 µM (inactive) in the assay on CCRF-CEM; 15 µM (inactive) in the assay on Hs-578T; 15.8 µM (inactive) in the assay on SN12C. Moreover, the GI50 in the assay on SK-MEL-5 was 31.2 µM (inactive); with HT-29, 22.2 µM (inactive); in the assay on MCF7, 40.1 µM (inactive); with HCT-116, 16.1 µM (inactive); in the assay with SK-MEL-28 it was 60.5 µM (inactive); in the assay on T47D, 42.1 µM (inactive). Moreover, the GI50 with OVCAR-5 was 42.7 µM (inactive).

`CN(C)CCCSc1nc2ccccc2[nH]1`: the GI50 in the assay on IGROV-1, in the assay with MDA-MB-231, with U-251, with OVCAR-4, in the assay on A549 and in the assay on NCI-H522 was > 100 µM (inactive) throughout. For the same compound, the GI50 in the assay with DU-145, in the assay with MDA-MB-435, with SNB-75, with Hs-578T, in the assay with SN12C and with SK-MEL-5 was > 100 µM (inactive) throughout. Further, the GI50 in the assay with HT-29, in the assay with MCF7, in the assay with HCT-116, in the assay on SK-MEL-28, in the assay on T47D and in the assay with OVCAR-5 was > 100 µM (inactive) in each case.

For the compound `CCN(CC)CCNC(=O)c1cc2cc(NC(=O)c3cc4cc(N)ccc4[nH]3)ccc2[nH]1`, the GI50 in the assay on MDA-MB-231 is 25.4 µM (inactive); in the assay on U-251, 25.6 µM (inactive); with OVCAR-4, 8.05 µM (inactive); in the assay with A549 it was 41 µM (inactive); in the assay with NCI-H522, 19.1 µM (inactive); in the assay with DU-145, 19.6 µM (inactive). Also, the GI50 in the assay on MDA-MB-435 is 17.7 µM (inactive); in the assay on CCRF-CEM, 9.53 µM (inactive); in the assay with Hs-578T, 35 µM (inactive); in the assay with SN12C, 39 µM (inactive); in the assay on HT-29, 30.6 µM (inactive); with MCF7, 15.1 µM (inactive). The GI50 in the assay with HCT-116 is 16 µM (inactive); in the assay with SK-MEL-28, > 100 µM (inactive); in the assay on T47D, 20.3 µM (inactive); with OVCAR-5, > 100 µM (inactive).

Turning to `C=C[C@@]1(C)CC[C@@H]2[C@@]3(C1)O[C@H]3CC1[C@](C)(C(=O)OC)CCC[C@@]12C` (stereo not given in full), the GI50 with IGROV-1 is 25.6 µM (inactive); in the assay on MDA-MB-231, 23 µM (inactive); in the assay with U-251, 21.1 µM (inactive); in the assay on OVCAR-4 it was 38.5 µM (inactive); with A549, 23.1 µM (inactive); with NCI-H522, 16.9 µM (inactive). The GI50 with DU-145 is 30.4 µM (inactive); in the assay with MDA-MB-435 it was 34 µM (inactive); with SNB-75, 37.8 µM (inactive); with Hs-578T, 20 µM (inactive); with SK-MEL-5 it was 17.8 µM (inactive); in the assay with HT-29, 14.1 µM (inactive). The GI50 with MCF7 is 15.6 µM (inactive); in the assay with HCT-116 it was 13.7 µM (inactive); with SK-MEL-28 it was 21.1 µM (inactive); with T47D, 20.7 µM (inactive); in the assay with OVCAR-5 it was 16.9 µM (inactive).

As to `CCc1ccc2c(c1)/C(=C1/Nc3ccccc3C1=O)C(=O)N2`, the GI50 is 0.124 µM (active) with IGROV-1; 34 µM (inactive) in the assay with MDA-MB-231; 13.5 µM (inactive) with U-251; 7.82 µM (inactive) in the assay with OVCAR-4; 13.8 µM (inactive) with A549; 19.5 µM (inactive) in the assay with NCI-H522. Also, the GI50 with DU-145 was 41.3 µM (inactive); in the assay with MDA-MB-435 it was 25.5 µM (inactive); in the assay with SNB-75, 22.3 µM (inactive); with CCRF-CEM, 36.1 µM (inactive); in the assay on Hs-578T it was 11 µM (inactive); in the assay on SN12C, 68.2 µM (inactive). Moreover, the GI50 in the assay with SK-MEL-5 is 9.62 µM (inactive); in the assay on HT-29, 25.4 µM (inactive); in the assay on MCF7, 1.78 µM (inactive); in the assay on HCT-116, 7.43 µM (inactive); in the assay with SK-MEL-28 it was 96.6 µM (inactive); in the assay on T47D it was 4.65 µM (inactive). For the same compound, the GI50 in the assay with OVCAR-5 was 44.9 µM (inactive).

`CC(C)(C)c1cc(C2COC(c3cc(C(C)(C)C)c(O)c(C(C)(C)C)c3)CO2)cc(C(C)(C)C)c1O` (stereo not given): the GI50 with IGROV-1 was > 100 µM (inactive); with MDA-MB-231, > 100 µM (inactive); in the assay on U-251 it was 90.4 µM (inactive); in the assay with OVCAR-4, > 100 µM (inactive); in the assay on A549, > 100 µM (inactive); in the assay with NCI-H522, > 100 µM (inactive). Also, the GI50 in the assay with DU-145, in the assay with MDA-MB-435, in the assay with SNB-75, with CCRF-CEM, in the assay on Hs-578T and in the assay with SN12C was > 100 µM (inactive) throughout. In addition, the GI50 in the assay on SK-MEL-5 was > 100 µM (inactive); in the assay on HT-29, > 100 µM (inactive); in the assay with MCF7 it was > 100 µM (inactive); in the assay with HCT-116 it was 51.6 µM (inactive); in the assay on SK-MEL-28 it was > 100 µM (inactive); in the assay on T47D, > 100 µM (inactive). Also, the GI50 in the assay on OVCAR-5 is > 100 µM (inactive).
